Test results reported in PMC11866180, “Facile Synthesis of Carbamoyl Fluorides viaN-Carbamoylimidazole Activation” (ACS Omega, 2025).
Like-named read-outs stand apart in the source and are kept apart here.

Key:
Assay in all cases: Ellman assay, […] nm
Format in all cases: biochemical
[1] = molecular target: T1, hBChE (human butyrylcholinesterase) (Homo sapiens, UniProt P06276)
T1 construct: gene BCHE

[2] = molecular target: T2, hAChE (human acetylcholinesterase) (Homo sapiens, UniProt P22303)
T2 construct: gene ACHE

[3] = molecular target: T1, hBChE (human butyrylcholinesterase); remark: listed apart in the source

T1 sequence (P06276 29-602): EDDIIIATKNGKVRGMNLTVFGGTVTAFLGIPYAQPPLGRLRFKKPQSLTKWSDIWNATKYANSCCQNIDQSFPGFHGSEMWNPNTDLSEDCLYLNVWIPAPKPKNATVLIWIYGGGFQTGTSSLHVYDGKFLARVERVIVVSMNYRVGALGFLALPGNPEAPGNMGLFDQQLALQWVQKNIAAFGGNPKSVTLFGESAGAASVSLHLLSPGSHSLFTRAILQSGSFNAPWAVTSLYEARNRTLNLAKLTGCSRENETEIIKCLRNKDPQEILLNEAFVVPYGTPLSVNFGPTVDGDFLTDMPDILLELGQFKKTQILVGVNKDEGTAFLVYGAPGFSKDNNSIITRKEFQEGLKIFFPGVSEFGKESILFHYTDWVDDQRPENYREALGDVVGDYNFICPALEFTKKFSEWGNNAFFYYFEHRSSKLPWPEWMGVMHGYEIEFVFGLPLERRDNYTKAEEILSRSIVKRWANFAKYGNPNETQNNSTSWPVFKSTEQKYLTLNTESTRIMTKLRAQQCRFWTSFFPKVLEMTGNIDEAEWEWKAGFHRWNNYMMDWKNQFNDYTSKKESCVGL
T2 sequence (P22303 32-614): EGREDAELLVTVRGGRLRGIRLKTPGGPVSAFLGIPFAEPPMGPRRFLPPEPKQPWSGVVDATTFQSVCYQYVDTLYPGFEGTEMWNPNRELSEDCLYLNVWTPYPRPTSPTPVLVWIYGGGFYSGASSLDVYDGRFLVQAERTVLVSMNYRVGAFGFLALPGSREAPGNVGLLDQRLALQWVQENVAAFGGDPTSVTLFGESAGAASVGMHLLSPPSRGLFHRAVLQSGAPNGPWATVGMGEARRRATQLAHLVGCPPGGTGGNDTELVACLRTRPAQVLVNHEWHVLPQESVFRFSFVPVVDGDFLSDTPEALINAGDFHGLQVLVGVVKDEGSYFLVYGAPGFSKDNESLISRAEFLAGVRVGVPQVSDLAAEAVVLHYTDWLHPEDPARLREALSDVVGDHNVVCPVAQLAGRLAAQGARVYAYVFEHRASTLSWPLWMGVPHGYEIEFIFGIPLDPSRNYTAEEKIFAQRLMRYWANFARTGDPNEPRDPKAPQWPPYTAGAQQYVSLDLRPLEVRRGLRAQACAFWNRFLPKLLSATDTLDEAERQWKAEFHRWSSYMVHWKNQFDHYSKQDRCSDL

| Compound | IC50 ([1]; read-out: hBChE) [µM] | IC50 ([2]; read-out: hAChE) [µM] | IC50 [1] [µM] | IC50 [2] [µM] | activity at 100 µM [3] [%] |
| --- | --- | --- | --- | --- | --- |
| CN(Cc1ccccc1)C(=O)F [3a, Benzyl(methyl)carbamic Fluoride] | 0.156 ± 0.009 | 5.65 ± 0.947 |  |  |  |
| O=C(F)N(Cc1ccccc1)Cc1ccccc1 [3b, Dibenzylcarbamic Fluoride] | 0.0696 ± 0.004 | 2.2 ± 0.27 |  |  |  |
| CCCCN(Cc1ccccc1)C(=O)F [3c, Benzyl(butyl)carbamic Fluoride] |  |  | 2.43 ± 0.4 | 4.48 ± 1.14 |  |
| O=C(F)N1CCc2ccccc21 [3d, Indoline-1-carbonyl Fluoride] |  | 4.62 ± 1.15 |  |  | 56.2 ± 3.7 |
| O=C(F)N1Cc2ccccc2C1 [3e, Isoindoline-2-carbonyl Fluoride] | 32.2 | 103 |  |  |  |
| O=C(F)N1CCc2ccccc2C1 [3f, 3,4-Dihydroisoquinoline-2(1H)-carbonyl Fluoride] | 0.707 ± 0.122 | 22.6 |  |  |  |
| O=C(F)N1CCC(Cc2ccccc2)CC1 [3g, 4-Benzylpiperidine-1-carbonyl Fluoride] | 0.00278 ± 0.00015 | 0.554 ± 0.079 |  |  |  |
| O=C(F)N1CCC(c2c[nH]c3ccccc23)CC1 [3h, 4-(1H-Indol-3-yl)piperidine-1-carbonyl Fluoride] |  |  | 0.0235 ± 0.0046 | 18.7 |  |
| C#CCCCCCCCCCN(C)C(=O)F [3i, Methyl(undec-10-yn-1-yl)carbamic Fluoride] |  |  | 0.197 ± 0.036 | 5.07 ± 1.15 |  |
| O=C(F)N1CCN(c2ccccc2F)CC1 [3j, 4-(2-Fluorophenyl)piperazine-1-carbonyl Fluoride] |  |  | 0.656 ± 0.032 | 10.7 |  |
| CN(C(=O)F)c1cccc2cc[nH]c12 [3k, (1H-Indol-7-yl)(methyl)carbamic Fluoride] | 0.00556 ± 0.00083 | 0.151 ± 0.008 |  |  |  |
